# Target: Cathepsin D (Homo sapiens, UniProt P07339)
# Assay: Inhibitory activity of compound against human Cathepsin D
# Sequence of Cathepsin D (P07339 65-162 limits assumed): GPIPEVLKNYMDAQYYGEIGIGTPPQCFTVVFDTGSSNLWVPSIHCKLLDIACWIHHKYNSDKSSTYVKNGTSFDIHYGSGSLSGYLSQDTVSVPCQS
# Sequence of Cathepsin D (P07339 169-412 limits assumed): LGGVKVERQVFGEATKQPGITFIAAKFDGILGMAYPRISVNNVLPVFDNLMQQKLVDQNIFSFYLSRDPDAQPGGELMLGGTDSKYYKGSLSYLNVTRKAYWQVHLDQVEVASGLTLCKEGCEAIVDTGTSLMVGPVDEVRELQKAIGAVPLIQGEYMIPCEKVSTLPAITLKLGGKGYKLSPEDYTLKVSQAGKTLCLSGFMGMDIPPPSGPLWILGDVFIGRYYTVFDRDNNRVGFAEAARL
row,Ki [nM],Structure (SMILES)
1,> 100000,O=C(/C=C/c1c(Cl)cccc1Cl)N[C@@H](Cc1ccccc1)[C@@H](O)CN(CCc1ccccn1)C(=O)COc1c(Cl)cc(Cl)cc1Cl
2,73,O=C(COc1c(Cl)cc(Cl)cc1Cl)N[C@@H](Cc1ccccc1)[C@@H](O)CN(CCc1ccc2c(c1)OCO2)C(=O)CCN1C(=O)c2ccccc2C1=O
3,3,O=C(COc1ccc(Cl)cc1Cl)N[C@@H](Cc1ccccc1)[C@@H](O)CN(CCc1ccc2c(c1)OCO2)C(=O)CCN1C(=O)c2ccccc2C1=O
4,~10000,O=C(/C=C/c1c(Cl)cccc1Cl)N[C@@H](Cc1ccccc1)[C@@H](O)CN(CCc1cccs1)C(=O)CCc1ccc(Cl)c(Cl)c1
5,5.2,COc1cc(Br)c(C(=O)N[C@@H](Cc2ccccc2)[C@@H](O)CN(CCc2ccc(Cl)cc2Cl)C(=O)CCN2C(=O)c3ccccc3C2=O)cc1OC
6,> 5000,O=C(COc1cc(Cl)c(Cl)cc1Cl)N[C@@H](Cc1ccccc1)[C@H](O)CN(CCc1ccc2c(c1)OCO2)C(=O)CCN1C(=O)c2ccccc2C1=O
